IC50 data for 62 molecules are collected here from patent publication US12336981B2, “Compounds and compositions for the inhibition of NAMPT” (Valo Health, Inc., priority 2010, dated 2025).

Structures are written as SMILES.

One assay concerns A2780 cells. The assay is described as follows: In-vitro cell proliferation assay (SRB), A2780 cells. The assay is classed as cell-based. Particulars: Homo sapiens, A2780, 72 h, A2780 cells, 72 hours, SRB; read-out: A2780 IC50. Summed up: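 Viable cells measured by SRB staining after 6% TCA fixation, absorbance 570 nm. Media-only background subtracted; % inhibition derived at two compound concentrations.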

In the next assay the target is T1, NAMPT (Homo sapiens, UniProt P43490).
T1 construct: His tag; host or cells: E. coli
As to the kind of experiment: Biochemical inhibition assay: NAMPT enzymatic reaction, NMN quantified by mass spectrometry. Particulars: NAMPT enzymatic reaction; read-out: Biochem IC50. Summed up: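 Inhibition of E. coli-expressed His-tagged human NAMPT, measured as NMN formation by mass spectrometry after a 30 min room-temperature reaction containing 1 μM NAM, 100 μM PRPP and 2.5 mM ATP.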

T1 sequence (P43490 whole entry): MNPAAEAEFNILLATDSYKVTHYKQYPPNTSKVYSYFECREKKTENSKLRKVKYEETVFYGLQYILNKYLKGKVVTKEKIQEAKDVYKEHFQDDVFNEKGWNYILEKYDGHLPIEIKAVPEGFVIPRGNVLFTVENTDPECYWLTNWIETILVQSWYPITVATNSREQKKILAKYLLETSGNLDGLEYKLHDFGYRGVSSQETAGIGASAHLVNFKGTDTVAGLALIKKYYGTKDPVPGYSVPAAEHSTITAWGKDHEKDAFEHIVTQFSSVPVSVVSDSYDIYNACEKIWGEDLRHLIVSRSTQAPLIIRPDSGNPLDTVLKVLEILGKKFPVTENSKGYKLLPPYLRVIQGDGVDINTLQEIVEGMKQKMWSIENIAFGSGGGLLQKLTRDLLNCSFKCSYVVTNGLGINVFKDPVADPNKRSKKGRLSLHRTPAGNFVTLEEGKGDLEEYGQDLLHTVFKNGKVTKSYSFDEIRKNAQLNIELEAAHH

For `CCCOc1ccc(S(=O)(=O)c2ccc(CNC(=O)c3cc4ccncc4s3)cc2)cc1F`, the IC50 with A2780 cells came to 8.1 nM; at NAMPT, 3.7 nM.

`COc1c(Cl)ccc(S(=O)(=O)c2ccc(CNC(=O)c3ccc4nccn4c3)cc2)c1Cl`: the half-inhibitory concentration (IC50) with A2780 cells turned out to be 13 nM; at NAMPT, 31.1 nM.

With `COc1c(Cl)ccc(S(=O)(=O)c2ccc(CNC(=O)c3cc4ccncc4o3)cc2)c1Cl`, the IC50 came out at 16.2 nM with A2780 cells and 17.7 nM at NAMPT.

In the case of `COc1c(Cl)ccc(S(=O)(=O)c2ccc(CNC(=O)c3cnc4nccn4c3)cc2)c1Cl`, the figures for the IC50 with A2780 cells and on NAMPT were 25.5 nM and 6.6 nM, respectively.

`Cc1cc(C)c(S(=O)(=O)c2ccc(CNC(=O)c3cnc4nccn4c3)cc2)cc1C`: the IC50 in the assay with A2780 cells is 24 nM; on NAMPT, 6.9 nM.

Turning to `Cc1cc(C)c(S(=O)(=O)c2ccc(CNC(=O)c3cc4ccncc4o3)cc2)c(C)c1`, the half-inhibitory concentration (IC50) in the assay on A2780 cells is 100 to 1000 nM; at NAMPT it was 59.2 nM.

Turning to `Cc1cc(C)c(S(=O)(=O)c2ccc(CNC(=O)c3cnc4nccn4c3)cc2)c(C)c1`, the IC50 with A2780 cells was 100 to 1000 nM; on NAMPT, 28.8 nM.

Turning to `N#Cc1cccc(S(=O)(=O)c2ccc(CNC(=O)c3cc4cnccc4[nH]3)cc2)c1`, the concentration for half-maximal inhibition (IC50) in the assay on A2780 cells was 11.3 nM; on NAMPT, 12.1 nM.

Regarding `N#Cc1cccc(S(=O)(=O)c2ccc(CNC(=O)c3cnc4nccn4c3)cc2)c1`, the figures for the IC50 with A2780 cells and on NAMPT were 19.2 nM and 5.9 nM, respectively.

As for `N#Cc1cccc(S(=O)(=O)c2ccc(CNC(=O)c3cc4ccncc4s3)cc2)c1`, the 50% inhibitory concentration (IC50) in the assay with A2780 cells amounted to 5.6 nM; at NAMPT, 3.5 nM.

For the molecule `CCOc1cccc(S(=O)(=O)c2ccc(CNC(=O)c3cc4ccncc4s3)cc2)c1F`, the concentration for half-maximal inhibition (IC50) with A2780 cells came to 12.9 nM; on NAMPT it was 3.7 nM.

In the case of `CCOc1cccc(S(=O)(=O)c2ccc(CNC(=O)c3cc4cnccc4[nH]3)cc2)c1F`, the IC50 amounted to 11.6 nM with A2780 cells and 31.2 nM at NAMPT.

As to `CCOc1cccc(S(=O)(=O)c2ccc(CNC(=O)c3cc4ccncc4o3)cc2)c1F`, the IC50 in the assay with A2780 cells was determined as 22.7 nM; at NAMPT, 17.5 nM.

`CCOc1cccc(S(=O)(=O)c2ccc(CNC(=O)c3cnc4nccn4c3)cc2)c1F`: the IC50 worked out at 19.7 nM with A2780 cells and 4 nM on NAMPT.

Turning to `CCOc1cccc(S(=O)(=O)c2ccc(CNC(=O)c3ccc4nccn4c3)cc2)c1F`, the 50% inhibitory concentration (IC50) in the assay on A2780 cells is 6.2 nM; on NAMPT, 5 nM.

Turning to `CCOc1cc(S(=O)(=O)c2ccc(CNC(=O)c3cc4ccncc4s3)cc2)ccc1F`, the IC50 with A2780 cells came out at 3.1 nM; at NAMPT, 3.3 nM.

Regarding `CCOc1cc(S(=O)(=O)c2ccc(CNC(=O)c3ccc4nccn4c3)cc2)ccc1F`, the half-maximal inhibitory concentration (IC50) with A2780 cells was determined as 6 nM; on NAMPT, 17 nM.

Regarding `CCOc1cc(S(=O)(=O)c2ccc(CNC(=O)c3cc4cnccc4[nH]3)cc2)ccc1F`, the IC50 in the assay with A2780 cells was found to be 4.4 nM; at NAMPT, 82.4 nM.

In the case of `CCOc1cccc(S(=O)(=O)c2ccc(CNC(=O)c3cnc4[nH]ncc4c3)cc2)c1`, the values for the half-inhibitory concentration (IC50) in the assay on A2780 cells and on NAMPT were 19 nM and 14.6 nM, respectively.

`CCOc1cccc(S(=O)(=O)c2ccc(CNC(=O)c3cnc4nccn4c3)cc2)c1`: the 50% inhibitory concentration (IC50) with A2780 cells is 6.7 nM; at NAMPT it was 2.1 nM.

As for `CCOc1cccc(S(=O)(=O)c2ccc(CNC(=O)c3ccc4nccn4c3)cc2)c1`, the IC50 in the assay with A2780 cells worked out at 3.1 nM; on NAMPT, 5 nM.

As to `CCc1cccc(S(=O)(=O)c2ccc(CNC(=O)c3cnc4[nH]ncc4c3)cc2)c1`, the half-maximal inhibitory concentration (IC50) in the assay on A2780 cells came to 7.1 nM; at NAMPT it was 7 nM.

For the molecule `CCc1cccc(S(=O)(=O)c2ccc(CNC(=O)c3cnc4nccn4c3)cc2)c1`, the figures for the IC50 in the assay with A2780 cells and on NAMPT were 4.1 nM and 3.8 nM, respectively.

In the case of `COc1c(F)cccc1S(=O)(=O)c1ccc(CNC(=O)c2cc3cnccc3[nH]2)cc1`, the IC50 in the assay with A2780 cells came to 6.3 nM; on NAMPT, 32.4 nM.

`COc1c(F)cccc1S(=O)(=O)c1ccc(CNC(=O)c2cnc3nccn3c2)cc1`: the IC50 with A2780 cells was 100 to 1000 nM; at NAMPT, 28.9 nM.

For `COc1c(F)cccc1S(=O)(=O)c1ccc(CNC(=O)c2cc3ccncc3s2)cc1`, the figures for the IC50 in the assay on A2780 cells and at NAMPT were 12.5 nM and 13.3 nM, respectively.

As to `COc1c(F)cccc1S(=O)(=O)c1ccc(CNC(=O)c2cc3ccncc3o2)cc1`, the IC50 worked out at 30.9 nM in the assay with A2780 cells and 16.6 nM on NAMPT.

`Cc1c(F)cccc1S(=O)(=O)c1ccc(CNC(=O)c2cc3cnccc3[nH]2)cc1`: the IC50 in the assay with A2780 cells is 13.2 nM; on NAMPT, 57.6 nM.

In the case of `Cc1c(F)cccc1S(=O)(=O)c1ccc(CNC(=O)c2cnc3nccn3c2)cc1`, the 50% inhibitory concentration (IC50) in the assay with A2780 cells amounted to 65.6 nM; on NAMPT, 8.1 nM.

In the case of `Cc1c(F)cccc1S(=O)(=O)c1ccc(CNC(=O)c2cc3ccncc3o2)cc1`, the IC50 is 30.7 nM in the assay with A2780 cells and 13.2 nM on NAMPT.

`Cc1c(F)cccc1S(=O)(=O)c1ccc(CNC(=O)c2ccc3nccn3c2)cc1`: the half-maximal inhibitory concentration (IC50) with A2780 cells came to 13.2 nM; on NAMPT, 46.9 nM.

As for `COc1ccc(S(=O)(=O)c2ccc(CNC(=O)c3cc4ccncc4o3)cc2)cc1F`, the figures for the IC50 in the assay on A2780 cells and on NAMPT were 6.8 nM and 2.2 nM, respectively.

For `Cc1ccc(S(=O)(=O)c2ccc(CNC(=O)c3cnc4[nH]ncc4c3)cc2)cc1F`, the IC50 in the assay with A2780 cells worked out at 5.6 nM; on NAMPT, 11.7 nM.

Regarding `Cc1ccc(S(=O)(=O)c2ccc(CNC(=O)c3cc4ccncc4o3)cc2)cc1F`, the IC50 with A2780 cells is 3.3 nM; on NAMPT, 14 nM.

Consider `Cc1ccc(S(=O)(=O)c2ccc(CNC(=O)c3cnc4nccn4c3)cc2)cc1F`, for which the results for the half-maximal inhibitory concentration (IC50) with A2780 cells and on NAMPT were 6.3 nM and 2.3 nM, respectively.

As for `CCCOc1ccc(S(=O)(=O)c2ccc(CNC(=O)c3cnc4nccn4c3)cc2)cc1F`, the values for the IC50 in the assay with A2780 cells and on NAMPT were 3.3 nM and 2.7 nM, respectively.

As for `CCCOc1ccc(S(=O)(=O)c2ccc(CNC(=O)c3cc4cnccc4[nH]3)cc2)cc1F`, the values for the concentration for half-maximal inhibition (IC50) in the assay on A2780 cells and on NAMPT were 10.4 nM and 30.9 nM, respectively.

Take `CCCOc1ccc(S(=O)(=O)c2ccc(CNC(=O)c3ccc4nccn4c3)cc2)cc1F`: the values for the IC50 with A2780 cells and on NAMPT were 4.4 nM and 22.1 nM, respectively.

`CCCOc1ccc(S(=O)(=O)c2ccc(CNC(=O)c3cc4ccncc4o3)cc2)cc1F`: the IC50 amounted to 11.8 nM in the assay on A2780 cells and 6.8 nM at NAMPT.

Regarding `COc1cc(F)cc(S(=O)(=O)c2ccc(CNC(=O)c3cnc4[nH]ncc4c3)cc2)c1`, the concentration for half-maximal inhibition (IC50) came to 6.3 nM in the assay with A2780 cells and 4.4 nM at NAMPT.

With `COc1cc(F)cc(S(=O)(=O)c2ccc(CNC(=O)c3cnc4nccn4c3)cc2)c1`, the half-maximal inhibitory concentration (IC50) is 3.3 nM with A2780 cells and 1.6 nM on NAMPT.

For the molecule `Cc1cc(F)cc(S(=O)(=O)c2ccc(CNC(=O)c3cc4ccncc4s3)cc2)c1`, the IC50 in the assay on A2780 cells stood at 0.6 nM; at NAMPT, 1 nM.

For the molecule `Cc1cc(F)cc(S(=O)(=O)c2ccc(CNC(=O)c3cnc4[nH]ncc4c3)cc2)c1`, the IC50 in the assay with A2780 cells worked out at 5.6 nM; on NAMPT, 9.5 nM.

In the case of `Cc1cc(F)cc(S(=O)(=O)c2ccc(CNC(=O)c3cc4cnccc4[nH]3)cc2)c1`, the figures for the IC50 with A2780 cells and on NAMPT were 1.8 nM and 8.3 nM, respectively.

As to `Cc1cc(F)cc(S(=O)(=O)c2ccc(CNC(=O)c3cnc4nccn4c3)cc2)c1`, the half-inhibitory concentration (IC50) with A2780 cells came out at 5.4 nM; on NAMPT, 1.5 nM.

Take `O=C(NCc1ccc(S(=O)(=O)c2cccc(F)c2)cc1)c1cnc2[nH]ncc2c1`: the figures for the IC50 in the assay on A2780 cells and on NAMPT were 25.3 nM and 33.9 nM, respectively.

Consider `O=C(NCc1ccc(S(=O)(=O)c2cccc(F)c2)cc1)c1cnc2nccn2c1`, for which the IC50 in the assay with A2780 cells was 22.1 nM; at NAMPT, 1.9 nM.

In the case of `O=C(NCc1ccc(S(=O)(=O)c2cccc(O)c2)cc1)c1ccc2nccn2c1`, the IC50 in the assay with A2780 cells was 7 nM; at NAMPT, 5 nM.

For the molecule `CS(=O)(=O)c1cccc(S(=O)(=O)c2ccc(CNC(=O)c3cc4ccncc4s3)cc2)c1`, the concentration for half-maximal inhibition (IC50) with A2780 cells came out at 3.5 nM; on NAMPT, 1.7 nM.

As to `CS(=O)(=O)c1cccc(S(=O)(=O)c2ccc(CNC(=O)c3ccc4nccn4c3)cc2)c1`, the results for the IC50 in the assay with A2780 cells and on NAMPT were 16 nM and 25.6 nM, respectively.

For the molecule `CS(=O)(=O)c1cccc(S(=O)(=O)c2ccc(CNC(=O)c3cc4ccncc4o3)cc2)c1`, the IC50 was determined as 6.8 nM in the assay with A2780 cells and 6 nM at NAMPT.

With `COc1cc(S(=O)(=O)c2ccc(CNC(=O)c3cc4cnccc4[nH]3)cc2)ccc1C`, the values for the 50% inhibitory concentration (IC50) in the assay on A2780 cells and at NAMPT were 3 nM and 7.9 nM, respectively.

Regarding `COc1cc(S(=O)(=O)c2ccc(CNC(=O)c3cc4ccncc4s3)cc2)ccc1C`, the 50% inhibitory concentration (IC50) worked out at 1.5 nM in the assay with A2780 cells and 2.7 nM on NAMPT.

As to `COc1cc(S(=O)(=O)c2ccc(CNC(=O)c3cnc4nccn4c3)cc2)ccc1C`, the IC50 was 1.7 nM in the assay with A2780 cells and 1.3 nM on NAMPT.

As to `COc1cc(S(=O)(=O)c2ccc(CNC(=O)c3cc4ccncc4o3)cc2)ccc1C`, the IC50 in the assay with A2780 cells was 3.1 nM; at NAMPT, 4.6 nM.

In the case of `COc1cc(C)cc(S(=O)(=O)c2ccc(CNC(=O)c3cc4cnccc4[nH]3)cc2)c1`, the figures for the IC50 in the assay with A2780 cells and at NAMPT were 2.8 nM and 9.6 nM, respectively.

For `COc1cc(C)cc(S(=O)(=O)c2ccc(CNC(=O)c3cnc4nccn4c3)cc2)c1`, the IC50 worked out at 1.3 nM with A2780 cells and 1.6 nM at NAMPT.

As for `COc1cc(C)cc(S(=O)(=O)c2ccc(CNC(=O)c3cc4ccncc4o3)cc2)c1`, the figures for the IC50 in the assay on A2780 cells and on NAMPT were 1.6 nM and 2.2 nM, respectively.

With `COc1cc(C)cc(S(=O)(=O)c2ccc(CNC(=O)c3ccc4nccn4c3)cc2)c1`, the IC50 was 1.6 nM in the assay on A2780 cells and 5.3 nM on NAMPT.

Regarding `COc1cc(C)cc(S(=O)(=O)c2ccc(CNC(=O)c3cc4ccncc4s3)cc2)c1`, the values for the IC50 in the assay on A2780 cells and on NAMPT were 0.8 nM and 2.4 nM, respectively.

For the molecule `COc1cccc(S(=O)(=O)c2ccc(CNC(=O)c3cnc4[nH]ncc4c3)cc2)c1`, the IC50 stood at 10 nM with A2780 cells and 20.9 nM on NAMPT.

With `COc1cccc(S(=O)(=O)c2ccc(CNC(=O)c3cc4ccncc4o3)cc2)c1`, the IC50 with A2780 cells is 6.9 nM; on NAMPT, 3.5 nM.

The IC50 is the concentration that gives 50% inhibition.
